The record followed here is paper PMC11892739, “Site-specific molecular glues for the 14-3-3/Tau pS214 protein–protein interaction via reversible covalent imine tethering” (RSC Medicinal Chemistry, 2025).

SMILES strings stand for the structures.

The test deals with T1, 14-3-3ζ/C-Raf peptide (Homo sapiens, UniProt P63104).
T1 construct: made in house; host or cells: NiCo21 (DE3) E. coli
The test is described as follows: FA peptide screen, 14-3-3ζ titration to client peptide and compound: C-Raf. It counts as binding. As to conditions: 250 μM compound, 100 nM peptide; +1 Thr. As to the method: Since the hub protein 14-3-3 binds to hundreds of phosphoprotein partners, selectivity of PPI stabilization is a major challenge. The interplay of chemical reactivity, and the topology and functionality of the composite binding pocket shaped by 14-3-3 and Tau potentially provide entries towards selective stabilization. […] Here, 14-3-3ζ was titrated to a constant concentration of client peptide (100 nM) and compound (250 μM) to determine the SF250μM values for the particular 14-3-3 PPI. A variety of 14-3-3 binding proteins was represented in this client panel whereby the size and hydrophobicity of the +1 amino acid were varied. […]
chromatography (HisTrap high performance cartridges, Cytiva). Typically two 5 mL columns were used for a 2 L culture in which the lysate was loaded on the column, washed with 10 CV wash buffer (50 mM Hepes, pH 8.0, 300 mM NaCl, 25 mM imidazole, 2 mM βME), and eluted with several fractions (2-4 CV) of elution buffer (50 mM Hepes, pH 8.0, 300 mM NaCl, 250 mM imidazole, 2 mM βME). […] Dialyzed protein was concentrated to ∼40 mg/mL, analyzed by Q -Tof LC/MS, and aliquots were flash -frozen for storage at −80 °C. […] Fractions containing the 14 -3-3 protein were pooled and concentrated to ∼60 mg/mL, analyzed Q -Tof LC/MS, and aliquots were flash -frozen for storage at −80°C.
Fluorescence Anisotropy – compound titration […]

T1 sequence (P63104 whole entry): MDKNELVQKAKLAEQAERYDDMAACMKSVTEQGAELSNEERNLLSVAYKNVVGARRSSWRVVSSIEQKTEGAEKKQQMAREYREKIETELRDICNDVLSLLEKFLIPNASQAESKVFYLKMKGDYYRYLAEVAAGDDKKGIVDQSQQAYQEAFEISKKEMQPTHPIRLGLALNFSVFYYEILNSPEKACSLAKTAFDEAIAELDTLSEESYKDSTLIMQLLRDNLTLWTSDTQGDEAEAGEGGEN

`CCc1ccc(-c2nccn2-c2ccc(C=O)c(Br)c2)cc1` [Compound 18]: the “stabilization of 14-3-3/C-Raf peptide (in words)” value is given as “did not show significant stabilizing activity”.
